Results taken from BindingDB's records for doi:10.1124/jpet.302.2.687 (University of Kentucky, 2002).
Where a name gives a salt, the structure may show the parent alone.

Target: Nicotinic acetylcholine receptor (Rattus leucopus, UniProt Q62594)
Sequence (Q62594 whole entry): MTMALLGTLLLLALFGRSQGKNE

## CC(NC(C)(C)C)C(=O)c1cccc(Cl)c1 (stereo unspecified) [BUPROPION HYDROCHLORIDE]
  Ki: > 10 µM
